Results published in ChEMBL document CHEMBL1156259, “Synthesis and biological evaluation of amidine, guanidine, and thiourea derivatives of 2-amino(6-trifluoromethoxy)benzothiazole as neuroprotective agents potentially useful in brain diseases” (J Med Chem, 2010).
Calls of active or inactive are those of the source. No cut-off for these calls is given here.

Assays:
Rattus norvegicus [1] = species: Rattus norvegicus; details: Wistar, Piriform cortex, at 50 µM
Description: Inhibition of voltage-dependent Na(+) channel in Wistar rat brain piriform cortex layer 2 assessed as inhibition of transient Na+ current amplitude at 50 uM under holding potential of -80 mV by whole cell patch clamp assay

Rattus norvegicus [2] = species: Rattus norvegicus; details: Wistar, Piriform cortex, at 60 µM
Description: Inhibition of voltage-dependent Ca(+) channel in Wistar rat brain piriform cortex acutely dissociated neurons assessed as effect on half activation potential of high voltage activated Ba+ current at 60 uM by whole cell patch clamp assay

Cortex [3] = assay: Neuroprotective activity in Sprague-Dawley rat brain cortex slices assessed as drug concentration causing maximum reduction of oxygen/glucose deprivation-induced LDH release; format: functional; details: read-out: MEC
Cortex [4] = assay: Neuroprotective activity in Sprague-Dawley rat brain cortex slices assessed as interval of drug concentration causing reduction of oxygen/glucose deprivation-induced LDH release; format: functional
cells = format: tissue-based; details: Rattus norvegicus, Wistar, Piriform cortex
Description: Inhibition of voltage-dependent Ca(+) channel in Wistar rat brain piriform cortex acutely dissociated neurons assessed as inhibition of high voltage activated Ba+ current amplitude at under holding potential of -60 mV by whole cell patch clamp assay

Cortex [5] = assay: Neuroprotective activity in Sprague-Dawley rat brain cortex slices assessed as drug concentration causing maximum reduction of oxygen/glucose deprivation-induced glutamate release; format: functional; details: read-out: MEC
[6] = Antioxidant activity assessed as ABTS+ radical scavenging activity by spectrophotometry relative to 1 mM Trolox; format: functional
Rattus norvegicus [7] = species: Rattus norvegicus; details: Wistar, Piriform cortex, at 60 µM; remark: listed apart in the source
Description: Inhibition of voltage-dependent Ca(+) channel in Wistar rat brain piriform cortex acutely dissociated neurons assessed as effect on high voltage activated Ba+ current deactivation at 60 uM by whole cell patch clamp assay

Rattus norvegicus [8] = species: Rattus norvegicus; details: Wistar, Piriform cortex, at 60 µM; remark: listed apart in the source
Description: Inhibition of voltage-dependent Ca(+) channel in Wistar rat brain piriform cortex acutely dissociated neurons assessed as effect on high voltage activated Ba+ current activation speed at 60 uM by whole cell patch clamp assay

Cortex [9] = assay: Neuroprotective activity in Sprague-Dawley rat brain cortex slices assessed as reduction of oxygen/glucose deprivation-induced glutamate release at minimal effective concentration; format: functional; parameters: scale not given: the % may be the effect or the level left
Cortex [10] = assay: Neuroprotective activity in Sprague-Dawley rat brain cortex slices assessed as reduction of oxygen/glucose deprivation-induced LDH release at minimal effective concentration; format: functional; parameters: scale not given: the % may be the effect or the level left
Cortex [11] = assay: Neuroprotective activity in Sprague-Dawley rat brain cortex slices assessed as interval of drug concentration causing reduction of oxygen/glucose deprivation-induced glutamate release; format: functional
[12] = biological target: Nitric oxide synthase 1 (Rattus norvegicus) (UniProt P29476); assay: Inhibition of nNOS in Sprague-Dawley rat brain assessed as nitric oxide-mediated conversion of oxyhemoglobin to methemoglobin
Sequence of Nitric oxide synthase 1 (Rattus norvegicus) (P29476 whole entry): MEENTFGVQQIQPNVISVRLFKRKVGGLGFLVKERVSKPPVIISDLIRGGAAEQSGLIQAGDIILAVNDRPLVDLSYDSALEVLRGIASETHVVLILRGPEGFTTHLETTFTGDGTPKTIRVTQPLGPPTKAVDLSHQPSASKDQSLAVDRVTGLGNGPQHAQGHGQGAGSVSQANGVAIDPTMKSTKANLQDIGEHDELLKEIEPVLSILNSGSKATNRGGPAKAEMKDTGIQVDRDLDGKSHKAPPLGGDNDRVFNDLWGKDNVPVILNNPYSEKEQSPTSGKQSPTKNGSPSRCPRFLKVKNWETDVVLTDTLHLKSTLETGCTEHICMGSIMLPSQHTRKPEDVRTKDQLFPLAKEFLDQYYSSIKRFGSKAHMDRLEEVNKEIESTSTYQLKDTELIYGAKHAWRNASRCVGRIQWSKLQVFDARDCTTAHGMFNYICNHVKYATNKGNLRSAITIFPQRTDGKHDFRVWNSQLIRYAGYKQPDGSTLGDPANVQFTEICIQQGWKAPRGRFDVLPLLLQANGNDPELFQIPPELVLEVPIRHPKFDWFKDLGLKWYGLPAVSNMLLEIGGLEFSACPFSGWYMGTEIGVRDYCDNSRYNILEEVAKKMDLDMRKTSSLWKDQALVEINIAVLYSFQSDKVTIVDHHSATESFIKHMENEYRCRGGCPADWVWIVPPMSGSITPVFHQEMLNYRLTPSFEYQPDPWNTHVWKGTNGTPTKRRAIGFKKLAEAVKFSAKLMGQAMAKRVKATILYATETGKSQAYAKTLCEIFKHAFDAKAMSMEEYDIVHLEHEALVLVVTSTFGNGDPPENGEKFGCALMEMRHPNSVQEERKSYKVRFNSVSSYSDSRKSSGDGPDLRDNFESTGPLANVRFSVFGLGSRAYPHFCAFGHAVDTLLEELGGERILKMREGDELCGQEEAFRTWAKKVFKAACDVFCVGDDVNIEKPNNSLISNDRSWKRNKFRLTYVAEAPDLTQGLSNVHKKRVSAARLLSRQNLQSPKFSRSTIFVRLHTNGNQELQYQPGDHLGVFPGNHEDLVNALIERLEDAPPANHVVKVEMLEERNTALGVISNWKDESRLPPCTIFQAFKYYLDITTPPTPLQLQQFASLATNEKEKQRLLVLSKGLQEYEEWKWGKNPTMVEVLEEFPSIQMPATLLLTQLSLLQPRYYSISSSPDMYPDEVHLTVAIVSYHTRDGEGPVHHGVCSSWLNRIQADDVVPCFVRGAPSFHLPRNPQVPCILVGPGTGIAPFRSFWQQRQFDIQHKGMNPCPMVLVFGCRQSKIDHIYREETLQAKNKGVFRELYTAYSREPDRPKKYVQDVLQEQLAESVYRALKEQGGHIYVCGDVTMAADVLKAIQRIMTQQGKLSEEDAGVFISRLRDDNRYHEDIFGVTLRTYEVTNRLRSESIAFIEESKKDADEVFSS

Structure (SMILES) | inhibition (Rattus norvegicus [1]) [%] | inhibition (Rattus norvegicus [2]) | minimal effective concentration (Cortex [3]) [µM] | Activity (Cortex [4]) [µM] | IC50 (cells) [µM] | minimal effective concentration (Cortex [5]) [µM] | Ratio [6] | inhibition (Rattus norvegicus [7]) | inhibition (Rattus norvegicus [8]) | Activity (Cortex [9]) [%] | Activity (Cortex [10]) [%] | Activity (Cortex [11]) [µM] | inhibition [6] | inhibition [12]
CCCCNC(=S)Nc1nc2ccc(OC(F)(F)F)cc2s1 | 0 | inactive | 0.01 | 0.01 | 24.1 | 1 | 0.98 | Active | inactive | 100 | 32 | 0.01 |  | 
O=c1c2ccccc2[se]n1-c1ccccc1 |  |  |  |  |  |  | 0.32 |  |  |  |  |  |  | 
Nc1nc2ccc(OC(F)(F)F)cc2s1 [RILUZOLE] | > 50 | inactive | 10 | 0.1 | 34.2 | 1 |  | Active | inactive | 100 | 100 | 1 | inactive | 
CCCNC(=S)Nc1nc2ccc(OC(F)(F)F)cc2s1 | 15 |  | 0.01 | 0.01 |  | 0.01 | 0.5 |  |  | 94.2 | 60.9 | 0.01 |  | 
C/C(=N\c1nc2ccc(OC(F)(F)F)cc2s1)N(C)C |  |  | 0.1 | 0.1 |  | 0.1 |  |  |  | 100 | 56.9 | 0.1 |  | inactive
CC(C)NC(=S)Nc1nc2ccc(OC(F)(F)F)cc2s1 |  |  | 0.01 | 0.01 |  | 0.1 | 0.64 |  |  | 80.3 | 50 | 0.01 |  | 
CCNC(=S)Nc1nc2ccc(OC(F)(F)F)cc2s1 |  |  | 0.1 | 0.1 |  | 1 | 0.88 |  |  | 80.1 | 73.1 | 1 |  | 
